Columns and labels:
PC-3 [1] = assay: Antiproliferative activity against human PC3 cells after 96 hrs by MTT assay; type: functional; settings: PC-3, 96 h
[2] = target: T1, Peptidyl-prolyl cis-trans isomerase NIMA-interacting 1 (Homo sapiens, UniProt Q13526); assay: Inhibition of recombinant N-terminal His6-tagged human Pin1 at 10 uM using Suc-Ala-Glu-cis-Pro-Phe-4-nitroanilide as substrate preincubated for 30 mins followed by substrate addition measured for 90 secs
[3] = target: T1, Peptidyl-prolyl cis-trans isomerase NIMA-interacting 1; assay: Inhibition of recombinant N-terminal His6-tagged human Pin1 using Suc-Ala-Glu-cis-Pro-Phe-4-nitroanilide as substrate preincubated for 30 mins followed by substrate addition measured for 90 secs
PC-3 [4] = assay: Cell cycle arrest in human PC3 cells assessed as accumulation at G0/G1 phase at 0.5 uM after 24 hrs by RNase/propidium iodide staining-based flow cytometric analysis (reference value: 55.03%); type: functional
PC-3 [5] = assay: Cell cycle arrest in human PC3 cells assessed as accumulation at G0/G1 phase at 0.25 uM after 24 hrs by RNase/propidium iodide staining-based flow cytometric analysis (reference value: 55.03%); type: functional
PC-3 [6] = assay: Cell cycle arrest in human PC3 cells assessed as accumulation at G0/G1 phase at 1 uM after 24 hrs by RNase/propidium iodide staining-based flow cytometric analysis (reference value: 55.03%); type: functional
PC-3 [7] = assay: Induction of apoptosis in human PC3 cells assessed as downregulation of Cyclin D1 expression after 24 hrs by Western blot analysis; type: functional, cell-based

T1 sequence (Q13526 whole entry): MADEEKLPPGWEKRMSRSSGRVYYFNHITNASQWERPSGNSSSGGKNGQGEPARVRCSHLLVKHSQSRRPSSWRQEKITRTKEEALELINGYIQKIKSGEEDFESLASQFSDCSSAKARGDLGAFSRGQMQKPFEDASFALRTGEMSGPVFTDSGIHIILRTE

C[C@H]1[C@H](C)CC[C@]2(C)CC[C@]3(C)C(=CC(=O)[C@@H]4[C@@]5(C)CC[C@@H](OC(=O)CNc6ccccc6)[C@](C)(C(=O)O)[C@@H]5CC[C@]43C)[C@H]12
GI50 (PC-3 [1]): 12.1 µM
inhibition [2]: 46%

C[C@H]1[C@H](C)CC[C@]2(C)CC[C@]3(C)C(=CC(=O)[C@@H]4[C@@]5(C)CC[C@@H](OC(=O)CN(CCO)CCO)[C@](C)(C(=O)O)[C@@H]5CC[C@]43C)[C@H]12
GI50 (PC-3 [1]): > 50 µM
inhibition [2]: 59%

C[C@H]1[C@H](C)CC[C@]2(C)CC[C@]3(C)C(=CC(=O)[C@@H]4[C@@]5(C)CC[C@@H](OC(=O)CN6CCCCC6)[C@](C)(C(=O)O)[C@@H]5CC[C@]43C)[C@H]12
GI50 (PC-3 [1]): 11.6 µM
inhibition [2]: 95%
IC50 [3]: 1.01 µM

COc1ccccc1/C=C1\C[C@]2(C)[C@H]3C(=O)C=C4[C@@H]5[C@@H](C)[C@H](C)CC[C@]5(C)CC[C@@]4(C)[C@]3(C)CC[C@H]2[C@@](C)(C(=O)OCc2ccccc2)C1=O
GI50 (PC-3 [1]): > 50 µM
inhibition [2]: 57%

C[C@H]1[C@H](C)CC[C@]2(C)CC[C@]3(C)C(=CC(=O)[C@@H]4[C@@]5(C)CC[C@@H](OC(=O)CN6CCNCC6)[C@](C)(C(=O)O)[C@@H]5CC[C@]43C)[C@H]12
GI50 (PC-3 [1]): > 50 µM
inhibition [2]: 49%

C[C@H]1[C@H](C)CC[C@]2(C)CC[C@]3(C)C(=CC(=O)[C@@H]4[C@@]5(C)C/C(=C\C(=O)O)C(=O)[C@](C)(C(=O)N6CCCCC6)[C@@H]5CC[C@]43C)[C@H]12
GI50 (PC-3 [1]): 7.11 µM
inhibition [2]: 89%
IC50 [3]: 0.55 µM

C[C@H]1[C@H](C)CC[C@]2(C)CC[C@]3(C)C(=CC(=O)[C@@H]4[C@@]5(C)C/C(=C\c6ccccc6)C(=O)[C@](C)(C(=O)OCc6ccccc6)[C@@H]5CC[C@]43C)[C@H]12
GI50 (PC-3 [1]): > 50 µM
inhibition [2]: 37%

C[C@H]1[C@H](C)CC[C@]2(C)CC[C@]3(C)C(=CC(=O)[C@@H]4[C@@]5(C)CC[C@@H](OC(=O)COc6ccc(C(=O)/C=C/c7ccccc7)cc6)[C@](C)(C(=O)O)[C@@H]5CC[C@]43C)[C@H]12
GI50 (PC-3 [1]): 8.84 µM
inhibition [2]: 95%
IC50 [3]: 0.97 µM

C[C@H]1[C@H](C)CC[C@]2(C)CC[C@]3(C)C(=CC(=O)[C@@H]4[C@@]5(C)CC[C@@H](OC(=O)COc6ccc(-c7cc(-c8ccccc8)[nH]n7)cc6)[C@](C)(C(=O)O)[C@@H]5CC[C@]43C)[C@H]12
GI50 (PC-3 [1]): 7.8 µM
inhibition [2]: 66%

CC(=O)O[C@@H]1CC[C@@]2(C)[C@@H](CC[C@]3(C)[C@@H]2C(=O)C=C2[C@@H]4[C@@H](C)[C@H](C)CC[C@]4(C)CC[C@]23C)[C@@]1(C)C(=O)O [AKBA]
GI50 (PC-3 [1]): 31.9 µM
inhibition [2]: 26%
IC50 [3]: 50.4 µM

CCN(CC)CC(=O)O[C@@H]1CC[C@@]2(C)[C@@H](CC[C@]3(C)[C@@H]2C(=O)C=C2[C@@H]4[C@@H](C)[C@H](C)CC[C@]4(C)CC[C@]23C)[C@@]1(C)C(=O)O
GI50 (PC-3 [1]): 10.7 µM
inhibition [2]: 58%

C[C@H]1[C@H](C)CC[C@]2(C)CC[C@]3(C)C(=CC(=O)[C@@H]4[C@@]5(C)CC[C@@H](OC(=O)CN(C)c6ccccc6)[C@](C)(C(=O)O)[C@@H]5CC[C@]43C)[C@H]12
GI50 (PC-3 [1]): 13.7 µM
inhibition [2]: 94%
IC50 [3]: 1.27 µM

C[C@H]1[C@H](C)CC[C@]2(C)CC[C@]3(C)C(=CC(=O)[C@@H]4[C@@]5(C)Cc6c(C(=O)O)n[nH]c6[C@](C)(C(=O)OCc6ccccc6)[C@@H]5CC[C@]43C)[C@H]12
GI50 (PC-3 [1]): 22.7 µM
inhibition [2]: 31%

C[C@H]1[C@H](C)CC[C@]2(C)CC[C@]3(C)C(=CC(=O)[C@@H]4[C@@]5(C)C/C(=C\C(=O)O)C(=O)[C@](C)(C(=O)N6CCOCC6)[C@@H]5CC[C@]43C)[C@H]12
GI50 (PC-3 [1]): 2.78 µM
inhibition [2]: 82%
IC50 [3]: 2.68 µM

C[C@H]1[C@H](C)CC[C@]2(C)CC[C@]3(C)C(=CC(=O)[C@@H]4[C@@]5(C)CC[C@@H](OC(=O)COc6ccc(Oc7ccccc7)cc6)[C@](C)(C(=O)O)[C@@H]5CC[C@]43C)[C@H]12
GI50 (PC-3 [1]): 12.5 µM
inhibition [2]: 90%
IC50 [3]: 1.58 µM

COC(=O)[C@@]1(C)c2[nH]nc(C(=O)O)c2C[C@@]2(C)[C@H]1CC[C@]1(C)[C@@H]2C(=O)C=C2[C@@H]3[C@@H](C)[C@H](C)CC[C@]3(C)CC[C@]21C
GI50 (PC-3 [1]): 37.6 µM
inhibition [2]: 56%

C[C@H]1[C@H](C)CC[C@]2(C)CC[C@]3(C)C(=CC(=O)[C@@H]4[C@@]5(C)CC[C@@H](OC(=O)CN6CCN(c7cccc(C(F)(F)F)c7)CC6)[C@](C)(C(=O)O)[C@@H]5CC[C@]43C)[C@H]12
GI50 (PC-3 [1]): 12.5 µM
inhibition [2]: 80%
IC50 [3]: 2.18 µM

CC(=O)N1N=C(c2ccc(OCC(=O)O[C@@H]3CC[C@@]4(C)[C@@H](CC[C@]5(C)[C@@H]4C(=O)C=C4[C@@H]6[C@@H](C)[C@H](C)CC[C@]6(C)CC[C@]45C)[C@@]3(C)C(=O)O)cc2)CC1c1ccccc1 (some centres undefined)
GI50 (PC-3 [1]): 9.42 µM
inhibition [2]: 32%

COC(=O)[C@@]1(C)c2onc(C(=O)O)c2C[C@@]2(C)[C@H]1CC[C@]1(C)[C@@H]2C(=O)C=C2[C@@H]3[C@@H](C)[C@H](C)CC[C@]3(C)CC[C@]21C
GI50 (PC-3 [1]): 37.6 µM
inhibition [2]: 41%

C[C@H]1[C@H](C)CC[C@]2(C)CC[C@]3(C)C(=CC(=O)[C@@H]4[C@@]5(C)C/C(=C\c6ccccc6C(=O)O)C(=O)[C@](C)(C(=O)OCc6ccccc6)[C@@H]5CC[C@]43C)[C@H]12
GI50 (PC-3 [1]): 3.29 µM
inhibition [2]: 94%
IC50 [3]: 0.68 µM

C[C@H]1[C@H](C)CC[C@]2(C)CC[C@]3(C)C(=CC(=O)[C@@H]4[C@@]5(C)Cc6c(C(=O)O)noc6[C@](C)(C(=O)OCc6ccccc6)[C@@H]5CC[C@]43C)[C@H]12
GI50 (PC-3 [1]): 26.9 µM
inhibition [2]: 29%

COC(=O)[C@@]1(C)C(=O)/C(=C/c2ccc(C(=O)O)cc2)C[C@]2(C)[C@H]3C(=O)C=C4[C@@H]5[C@@H](C)[C@H](C)CC[C@]5(C)CC[C@@]4(C)[C@]3(C)CC[C@@H]12
GI50 (PC-3 [1]): > 50 µM
inhibition [2]: 43%

C[C@H]1[C@H](C)CC[C@]2(C)CC[C@]3(C)C(=CC(=O)[C@@H]4[C@@]5(C)CC[C@@H](OC(=O)CN6CCN(C)CC6)[C@](C)(C(=O)O)[C@@H]5CC[C@]43C)[C@H]12
GI50 (PC-3 [1]): 37.9 µM
inhibition [2]: 24%

C[C@H]1[C@H](C)CC[C@]2(C)CC[C@]3(C)C(=CC(=O)[C@@H]4[C@@]5(C)CC[C@@H](OC(=O)COc6ccccc6)[C@](C)(C(=O)O)[C@@H]5CC[C@]43C)[C@H]12
GI50 (PC-3 [1]): 18.5 µM
inhibition [2]: 35%

COC(=O)[C@@]1(C)C(=O)/C(=C/C(=O)O)C[C@]2(C)[C@H]3C(=O)C=C4[C@@H]5[C@@H](C)[C@H](C)CC[C@]5(C)CC[C@@]4(C)[C@]3(C)CC[C@@H]12
GI50 (PC-3 [1]): 8 µM
inhibition [2]: 51%

C[C@H]1[C@H](C)CC[C@]2(C)CC[C@]3(C)C(=CC(=O)[C@@H]4[C@@]5(C)C/C(=C\c6ccc(C(=O)O)cc6)C(=O)[C@](C)(C(=O)OCc6ccccc6)[C@@H]5CC[C@]43C)[C@H]12
GI50 (PC-3 [1]): 32.1 µM
inhibition [2]: 40%

C[C@H]1[C@H](C)CC[C@]2(C)CC[C@]3(C)C(=CC(=O)[C@@H]4[C@@]5(C)C/C(=C\C(=O)O)C(=O)[C@](C)(C(=O)OCc6ccccc6)[C@@H]5CC[C@]43C)[C@H]12
Activity (PC-3 [4]): 67.62%
Activity (PC-3 [5]): 62.35%
Activity (PC-3 [6]): 72%
GI50 (PC-3 [1]): 1.82 µM
inhibition [2]: 97%
IC50 [3]: 0.46 µM
Activity (PC-3 [7]): Dose-dependent effect

COC(=O)[C@@]1(C)C(=O)/C(=C/c2ccccc2C(=O)O)C[C@]2(C)[C@H]3C(=O)C=C4[C@@H]5[C@@H](C)[C@H](C)CC[C@]5(C)CC[C@@]4(C)[C@]3(C)CC[C@@H]12
GI50 (PC-3 [1]): 15.2 µM
inhibition [2]: 69%

C[C@H]1[C@H](C)CC[C@]2(C)CC[C@]3(C)C(=CC(=O)[C@@H]4[C@@]5(C)CC[C@@H](OC(=O)CN6CCOCC6)[C@](C)(C(=O)O)[C@@H]5CC[C@]43C)[C@H]12
GI50 (PC-3 [1]): 10.6 µM
inhibition [2]: 78%

CC1CCN(CC(=O)O[C@@H]2CC[C@@]3(C)[C@@H](CC[C@]4(C)[C@@H]3C(=O)C=C3[C@@H]5[C@@H](C)[C@H](C)CC[C@]5(C)CC[C@]34C)[C@@]2(C)C(=O)O)CC1
GI50 (PC-3 [1]): 15.6 µM
inhibition [2]: 78%

From ChEMBL document CHEMBL4265893, “Design, synthesis and biological evaluation of ring A modified 11-keto-boswellic acid derivatives as Pin1 inhibitors with remarkable anti-prostate cancer activity” (Bioorg Med Chem Lett, 2018)
